Reference: patent US20230152314A1, “LIPOCALIN-2 ASSAY FOR INTESTINAL ADAPTATION” (THE JOHNS HOPKINS UNIVERSITY, priority 2020, published 2023)
Entries after “also recorded” stand apart in the source; their conditions may differ.

Assays:
WT SBR mice = experiment: I3C (AHR agonist) supplementation in SBR mice: weight gain; assay type: in vivo, mouse; conditions: WT SBR mice vs DMSO-treated control, postoperative days 3-7, p=0.04 at day 7
Text: In one experiment, AHR agonists are studied in our SBR model. The purpose of this experiment is to study AHR activation via a dietary supplement, which has tremendous potential as a translational approach. Under our ACUC-approved protocol, we will perform a 75% SBR on the same four groups [n=12 mice in each group] of C57Bl/6J mice: WT, LCN2-/-, AHR-/- and AHR-/-LCN2-/-. Sham-operated WT, LCN2-/-, AHR-/- and AHR-/-LCN2-/- C57Bl/6J mice [n=12 mice in each group] will serve as controls. Mice will be randomized to receive either the AHR agonist, indole-3-carbinol […]) (Sigma, 17256, St Louis, Mo.) at a dose of 15-20 mg/kg, dissolved in DMSO, or DMSO alone mixed into the liquid diet. The rodent liquid diet containing […] will be maintained for the duration of the postoperative period. Control mice will receive DMSO only. Mice will be weighed daily. One week later, the mice will be anesthetized for tissue collection and analyses performed.

[1] = test system: WT SBR mice (75% SBR model of short bowel syndrome); experiment: Rescue IL-22 therapy for SBR WT mice: body weight and villus length; assay type: in vivo, mouse
Experimental: Creation of a clinically relevant model of short bowel syndrome in the mouse. In our laboratory, we established the model previously described by Helmrath et al.^18 Briefly, the hair on the abdomen of the mouse was removed by depilatory creams, and the abdomen was scrubbed with three rounds of betadine, prior to making an incision. Through a 1.5 cm midline laparotomy, the small bowel was examined. The 75% SBR was performed by transecting 3 cm distal to the ligament of Treitz and 6 cm proximal to the cecum. The intervening proximal small bowel (approximately 18 cms) was removed. Intestinal continuity was restored with a primary end-to-end jejunoileal anastomosis using 8-0 Nylon suture. The sham operation (SHA) was performed by transecting the small bowel 6 cm proximal to the cecum and immediately creating a primary end-to-end ileoileal anastomosis. Subcutaneous closure was performed with a running absorbable 4-0 Vicryl suture. Cutaneous closure was completed by interrupted 4-0 silk sutures. All animals received 1 mL of saline subcutaneously before and immediately after procedure.
After surgery, mice were offered free access to water for the first 24 hours. Fresh rodent liquid diet was provided and body weight was measured daily. Bromodeoxyuridine (BrdU) (Invitrogen, 00-0103) was administered through intraperitoneal injection (ip) 24 hours before euthanasia. Intestinal permeability was evaluated with FITC-Dextran intestinal permeability assay as described below. Serum, intestinal issue, liver, and cecal content were collected after euthanasia.
Morphometric Analysis. The jejunum and ileum were fixed in 10% neutral buffered formalin for 24 hours. […] Villus length in jejunum and ileum was measured under light microscopy (EVOS FL Auto Imaging System). At least 30 well-oriented intact villi were counted per mouse.
Rescue IL-22 Therapy for SBR WT Mice. […] The relative abundance of Proteobacteria, Bacteroidetes, Firmicutes, Lactobacillus and Enterobacteriaceae of fecal microbiome and Reg3b and Reg3g genes in the intestine were assessed by q-PCR.

[2] = test system: Proteobacteria, Bacteroidetes, Firmicutes of fecal microbiome; experiment: Rescue IL-22 therapy: relative abundance of fecal microbiome groups by q-PCR; assay type: in vivo, mouse; conditions: WT SBR mice, POD 7, q-PCR
Experimental: (§1) Rescue IL-22 Therapy for SBR WT Mice. Following a 75% SBR, WT mice were treated daily for six days via intraperitoneal injections with either 100 μL PBS as control or 100 μL PBS containing 4 μg rmIL-22 (PeproTECH, 210-22) as treatment. At post-operative day (POD) 7, intestinal tissue and cecal contents were collected after euthanasia. The relative abundance of Proteobacteria, Bacteroidetes, Firmicutes, Lactobacillus and Enterobacteriaceae of fecal microbiome and Reg3b and Reg3g genes in the intestine were assessed by q-PCR.
(§2) Quantitative real-time PCR. Gene quantification was carried out with iTap Universal SYBR Green Supermix (Bio-rad, 172-5124, Hercules, Calif., USA) on a CFX96 Touch Real-time PCR system (Bio-rad) according to the manufacturer's instructions and calculated with 2^−ΔΔCT method. Thermal cycling was performed at 95° C. for 5 min, followed by 40 cycles at 95° C. for 15 s, 60° C. 10s, 72° C. for 30 s. Primers for transcriptional levels of Lcn2, IL-6.

[3] = test system: Reg3b, Reg3g and Tnf-α genes in the intestine; experiment: Rescue IL-22 therapy: transcriptional levels of intestinal genes by q-PCR; assay type: in vivo, mouse; conditions: WT SBR mice
Experimental: as §1
RNA Extraction and Reverse Transcription. Total RNA from tissue was extracted according to the manufacturer's instructions (QIAGEN, RNeasy Mini Kit, 74106). Genomic DNA was eliminated from RNA, and total RNA (0.5 μg) was reverse transcribed to cDNA with QuantiTect Reverse Transcription Kit according to the manufacturer's protocol (QIAGEN, 205311, Germantown, Md., USA).
as §2

Th22 cells = experiment: Th22 cell differentiation with and without LCN2, IL-22 ELISA of supernatant; assay type: cell-based, mouse; conditions: rmLCN2 1 ug/mL, 5 days
Experimental: Naïve CD4^+ T Lymphocytes Isolation and Th22 cells Differentiation. We isolated naïve CD4+ T cells as previously described by Bedoya S K et al.^22 Briefly, splenic tissue was removed from 6-week old C57BL/6J male mice and ground into a single cell suspension under a sterile hood. Red blood cells (RBC) were removed by using ammonium-chloride-potassium (ACK) lysing buffer (Quality Biological, 118-156-101, Gaithersburg, Md., USA) at RT for 3 minutes. Naïve CD4+ T cells were isolated from total splenocyte by magnetic activated cell sorting (MACS) based on positive selection using CD4 (L3T4) MicroBeads (Miltenyi Biotec, 130-117-043, Bergisch-Gladbach, Germany) according to the manufacturer's instructions. The purity of naive CD4+ T cells was more than 97%, as measured by flow cytometry.
For Th22 cell differentiation, CD4+ T cells were stimulated in complete media (RPMI 1640 with 2 mM L-glutamine, 10% FBS, […] 1-ME, 100 U/ml penicillin-streptomycin) with plate-bound anti-CD3ε (Clone 145-2C11, 1 ug/mL, BD; 550275) and soluble anti-CD28 (Clone 37.51, 2 ug/ml, BD, 553295) for 5 days under polarizing condition for Th22 cells (IL-6 20 ng/mL, IL-β 10 ng/mL, TNF-α 10 ng/mL)^23 with and without mouse recombinant (rm) LCN2 (1 ug/mL, R&D, 1857-LC-050). Cell supernatant was collected for IL-22 ELISA analysis (Invitrogen, 88-7422-22) according to the manufacturer's instructions.

[4] = POD 7, compared to PBS-treated group
[5] = jejunum and colon, especially in the colon

OCc1c[nH]c2ccccc12 [I3C, indole-3-carbinol]
weight gain following SBR (WT SBR mice): increases; also recorded: significant increase

rmIL-22: recombinant mouse IL-22 (PeproTECH, 210-22), given intraperitoneally in PBS
body weight lost ([1]; POD 7, 4 μg rmIL-22 ip daily for six days): 7.5% | length of villi in ileum [1, 4]: no difference | length of villi in jejunum [1, 4]: significantly longer | relative abundance of Bacteroidetes [2]: increased | relative abundance of Firmicutes [2]: increased | relative abundance of Proteobacteria [2]: decreased | Reg3b transcriptional level [3, 5]: robust increase | Reg3g transcriptional level [3, 5]: robust increase | transcriptional levels of Tnf-α ([3]; jejunum, inflammation): increased

B1: LCN2: mouse recombinant (rm) LCN2 (R&D, 1857-LC-050) added to Th22 polarizing culture (protein, UniProt P11672 21-200, looked up)
Neutrophil …: QDSTQNLIPAPSLLTVPLQPDFRSDQFRGRWYVVGLAGNAVQKKTEGSFTMYSTIYELQENNSYNVTSILVRDQDQGCRYWIRTFVPSSRAGQFTLGNMHRYPQVQSYNVQVATTDYNQFAMVFFRKTSENKQYFKITLYGRTKELSPELKERFTRFAKSLGLKDDNIIFSVPTDQCIDN
levels of IL-22 protein expression from Th22 cells (Th22 cells): significantly decreased
